Data reported in patent US12590100B2, “Tetrahydro-spiroindoline-pyrrolopyrrole-triones inhibitors of the NRF2-β-TrCP interaction for use in the treatment of fatty liver disease” (Universidad Autonoma De Madrid, priority 2021, dated 2026).

Experiments:
NRF2 [1] = test: NRF2 and HO-1 protein levels in mouse tissues after IP treatment; format: in vivo; conditions: C57BL/6 mice, single IP 50 mg/kg, 120 min
Description: FIG. 9. PHAR activates NRF2 and HO-1 in liver. A), UV and MS spectrum derived from the HPLC-MS analysis of PHAR dissolved in methanol for the identification of peaks associated with the compound. A blue rectangle surrounds the mass associated with PHAR. (B-D), the mice were treated with the vehicle (Tween-80+PBS, 1:13), 50 mg/kg of PHAR, or 50 mg/kg of SFN (saline) as a positive control by means of intraperitoneal (IP) injection for 2 hours. B), HPLC-MS UV and MS spectra derived from representative liver samples of both experimental groups used for determining PHAR levels in the liver 120 min after a single IP injection of 50 mg/kg. A blue rectangle surrounds the mass associated with PHAR. C), representative immunoblots showing NRF2, HO1, and LAMINB protein levels as the liver extract loading control. D), densitometric analysis of NRF2 protein levels of the representative immunoblots shown in (C), expressed as a ratio of NRF2/LAMINB. Statistical analysis was performed with one-way ANOVA followed by the Bonferroni test to compare inter-group differences. ***p<0.001 vs. vehicle. E) and F), the mice were treated daily with vehicle (Tween-80+PBS, 1:13) or 50 mg/kg of PHAR by means of intraperitoneal injection for 5 days. E), representative immunoblots showing NRF2, HO1, and LAMINB protein levels as loading control in brain, liver and kidney. F), densitometric analysis of NRF2 and HO1 protein levels in the liver tissue of the representative immunoblots shown in (E), expressed as a ratio of NRF2/LAMINB or HO1/LAMINB levels. Statistical analysis was performed with a Student t test to compare inter-group differences. **p<0.01 vs. vehicle.
Once the mechanism of action of PHAR was deciphered, the capacity thereof to induce NRF2 levels in a murine model was evaluated. C57BL/6 mice received a single intraperitoneal (IP) injection of 50 mg/kg PHAR (Tween-80+PBS, 1:13) or 50 mg/kg of SFN (saline) as a positive control. The UV spectrum derived from the HPLC-MS study of the PHAR compound dissolved in methanol alone helped the identification of the peak associated with the compound for subsequent identification in the tissue analysis. […] Taking this as a reference point, liver tissue analysis was performed to check for the presence of PHAR therein.
For this reason, C57BL/6 mice were treated daily by IP route for 5 days with 50 mg/kg of vehicle or 50 mg/kg of PHAR.

NRF2 [2] = test: NRF2 and HO-1 protein levels in MEFs (immunoblot); format: cell-based, mouse; conditions: SFN 10 μM
Description: (§1) FIG. 4. […] MEFs in serum-depleted conditions were subjected to (A-C) 1 μM, 3 μM, or 10 μM of PHAR and 10 μM of SFN as a positive control for 16 h; or (D-F) 10 μM of PHAR for the indicated times. In both experiments, 0.1% DMSO was used as a vehicle. A), representative immunoblots of NRF2, HO1, KEAP1, LAMINB, and GAPDH as loading controls. B) and C), densitometric analysis of NRF2 and HO1 protein levels of the representative immunoblots depicted in (A), expressed as a ratio of NRF2/LAMINB or HO1/GAPDH. The data is depicted as means±SEM (n=3). Statistical analysis was performed with one-way ANOVA followed by the Bonferroni test to check inter-group differences. *p<0.05; ***p<0.001 vs. 0. D), representative immunoblots of NRF2, HO1, KEAP1, LAMINB, and GAPDH as loading controls. E) and F), Densitometric analysis of NRF2 and HO1 protein levels of the representative immunoblots of (D), expressed as a ratio of NRF2/LAMINB or HO1/GAPDH. The data is depicted as means±SEM (n=3). Statistical analysis was performed with one-way ANOVA followed by the Bonferroni test to check inter-group differences. *p<0.05; ***p<0.001 vs. 0. G), Reporter MCF-7 c32 ARE-luc cells were subjected to 1 μM, 3 μM, or 9 μM of PHAR and 10 μM of SFN as a positive control. 0.1% DMSO was used as a vehicle. Luciferase activity was measured after 16 h of treatment. The data is depicted as means±SEM (n=3). Statistical analysis was performed with one-way ANOVA followed by the Bonferroni test to check inter-group differences. **p<0.01; ***p<0.001 vs. 0. H), MTT assay to evaluate cell viability/toxicity after treatments. I), Serum-deprived MEFs were subjected to 10 μM of PHAR. The mRNA levels of Hmox1, Nqo1, Aox1, Glc, and Gclm after 8 h of treatment were determined by means of pRT-PCR and normalized by means of average LaminB, Gapdh, and β-actin. The data is depicted as means±SEM (n=3). Statistical analysis was performed with the Student's T test. *p<0.05; **p<0.01 ***p<0.001 vs. 0.
In order to empirically determine if PHAR activates NRF2, mouse embryo fibroblasts (MEFs) were treated with several doses of the compound (1 μM, 3 μM, and […]) for 16 h and with 10 μM of sulforaphane (SFN), one of main electrophilic activators of NRF2, used as a positive control.
Moreover, a time course of NRF2 activation with PHAR (10 μM for 2, 4, and 8 h) or with SFN (10 μM, 8 h) was done as a positive control.

[3] = system: transcriptional activity of NRF2; test: ARE luciferase reporter assay in MCF-7 c32 ARE-LUC cells; format: cell-based; conditions: 9 μM, 16 h
Description: as §1, with “G), Reporter MCF-7 c32 ARE-luc cells were subjected to 1 μM, 3 μM, or 9 μM of PHAR and 10 μM of SFN as a positive control. 0.1% DMSO was used as a vehicle.” left out, “The data is depicted as means±SEM (n=3). Statistical analysis was performed with one-way ANOVA followed by the Bonferroni test to check inter-group differences. **p<0.01; ***p<0.001 vs. 0. H), MTT assay to evaluate cell viability/toxicity after treatments. I), Serum-deprived MEFs were subjected to 10 μM of PHAR.” left out, “The data is depicted as means±SEM (n=3). Statistical analysis was performed with the Student's T test. *p<0.05; **p<0.01 ***p<0.001 vs. 0.” left out

C[S+]([O-])CCCCN=C=S (stereo not shown) [SFN, sulforaphane, reference compound]
liver NRF2 levels (NRF2 [1]): accumulation caused by SFN | NRF2 accumulation (NRF2 [2]; 16 h, PHAR 1, 3, 9 μM): accumulation induced by SFN | NRF2 accumulation, time course (NRF2 [2]; PHAR 10 μM for 2, 4, 8 h, 8 h): induction generated by SFN | increase in luciferase activity [3]: similar
